Experimental data: ChEMBL document CHEMBL5726706, “C-linked heterocycloaklyl substituted pyrimidines and their uses” (2018)

Biological target: T1, Mitogen-activated protein kinase kinase kinase 12 (Homo sapiens, UniProt Q12852)
T1 sequence (Q12852 whole entry): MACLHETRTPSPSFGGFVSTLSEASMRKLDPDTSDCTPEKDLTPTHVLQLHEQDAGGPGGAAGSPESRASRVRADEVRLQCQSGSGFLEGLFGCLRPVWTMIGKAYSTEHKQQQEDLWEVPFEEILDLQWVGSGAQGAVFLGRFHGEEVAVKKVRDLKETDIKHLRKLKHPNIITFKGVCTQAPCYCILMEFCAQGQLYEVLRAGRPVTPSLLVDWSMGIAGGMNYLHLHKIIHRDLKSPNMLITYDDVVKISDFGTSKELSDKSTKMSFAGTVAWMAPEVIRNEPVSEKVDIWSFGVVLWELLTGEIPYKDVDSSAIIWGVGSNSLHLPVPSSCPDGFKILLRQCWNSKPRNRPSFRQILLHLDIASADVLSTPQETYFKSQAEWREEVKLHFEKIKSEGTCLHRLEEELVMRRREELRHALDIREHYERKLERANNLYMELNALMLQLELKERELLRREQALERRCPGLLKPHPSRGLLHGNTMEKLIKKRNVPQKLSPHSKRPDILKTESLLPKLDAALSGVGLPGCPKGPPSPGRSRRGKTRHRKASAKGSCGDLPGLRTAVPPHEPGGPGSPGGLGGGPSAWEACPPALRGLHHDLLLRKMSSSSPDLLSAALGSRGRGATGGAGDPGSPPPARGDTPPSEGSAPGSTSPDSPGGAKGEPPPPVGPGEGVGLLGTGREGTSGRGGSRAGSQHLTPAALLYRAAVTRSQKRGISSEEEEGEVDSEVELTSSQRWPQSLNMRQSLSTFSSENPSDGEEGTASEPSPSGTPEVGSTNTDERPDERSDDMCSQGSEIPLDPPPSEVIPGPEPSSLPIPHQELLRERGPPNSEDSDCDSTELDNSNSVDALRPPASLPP
Experiment: TR-FRET assay: DLK kinase reactions (20 μL) containing 5 nM N-terminally GST-tagged DLK (catalytic domain amino acid 1-520) (Carna Bioscience), 40 nM N-terminally HIS-tagged MKK4 K131M substrate, and 30 μM ATP in kinase reaction buffer (50 mM HEPES, pH 7.5, 0.01% Triton X-100, 0.01% Bovine γ-Globulins, 2 mM DTT, 10 mM MgCl2 and 1 mM EGTA), and testing compound 1:3 serial diluted starting at 20 uM were incubated at ambient temperature for 60 minutes in 384 well OptiPlate (Perkin Elmer). To quench kinase reactions and detect phosphorylated MKK4, 15 μL of TR-FRET antibody mixture containing 2 nM anti-phosphorylated MKK4 labeled with Europium cryptate (Cisbio) and 23 nM anti-HIS labeled with D2 (Cisbio) in detection buffer (25 mM Tris pH 7.5, 100 mM NaCl, 100 mM EDTA, 0.01% Tween-20, and 200 mM KF) was added to the reaction mixture. The detection mixture was incubated for 3 hours at ambient temperature and the TR-FRET was detected with an EnVision multilabel plate reader (Perkin-Elmer) using the LANCE/DELFIA Dual Enh label from Perkin-Elmer (excitation filter: UV2 (TRF) 320 and emission filters: APC 665 and Europium 615).

Row | Compound | Ki [nM]
1 | Cc1ccnc(Nc2cc(C3CCCN(C(=O)Cc4ccccc4)C3)nc(C)n2)c1 (configuration not stated) | 639
2 | COC[C@H]1CCCN1c1nc(Nc2cc(C(F)(F)F)ccn2)cc(C2CCN(C(C)=O)CC2)n1 | 54.8
